Patent US20170143701A1, “CARBOHYDRATE METABOLISM-AMELIORATING AGENT” (SUNTORY HOLDINGS LIMITED, priority 2014, published 2017)

System: NCI-H716 cells
Test: In vitro GLP-1 secretion-accelerating action: amount of active GLP-1 secreted (ELISA)
Type: cell-based
Settings: 1 hour; for Significant difference (p < 0.05) vs control group, amount of active GLP-1 secreted: 10 mM, Student's t-test; for Amount of active GLP-1 secreted (relative value to control group as 100), average value: cyclic dipeptide 10 mM with 10 μM Sitagliptin phosphate, group with no cyclic dipeptide = 100
Method: Among the cyclic dipeptides, 92 highly water-soluble cyclic dipeptides were used in the following experiment. In each well of a Poly-L-Lysine 96-well plate, NCI-H716 cells suspended in 100 μL of a DMEM (with 10% FBS, 2 mM glutamine, and 1% antibiotics added in advance) were seeded at 0.5×10^5 cells/well, and cultured in a CO2 incubator (manufactured by ESPEC CORP.) for 48 hours. After washing with PBS(+), 100 μL of a PBS(+) solution with each cyclic dipeptide at a final concentration of 10 mM and 10 μM of Sitagliptin phosphate added therein was added to the cells. After 1 hour, the resultant solution was recovered, and the amount of active GLP-1 in the solution was measured by using the ELISA kit. In the analysis, the amount of active GLP-1 for a group with no cyclic dipeptide added was defined as 100, and relative values thereto were used.

NC(=O)CCC1NC(=O)C(CC(=O)O)NC1=O (stereo not drawn) [compound 171, Cyclo(Gln-Asp)]
Significant difference (p < 0.05) vs control group, amount of active GLP-1 secreted (Table 3, Experiment 3): No | Amount of active GLP-1 secreted (relative value to control group as 100), average value (Table 3, Experiment 3): 120

NC(N)=NCCC[C@@H]1NC(=O)CNC1=O [compound 117, Cyclo(Arg-Gly)]
Significant difference (p < 0.05) vs control group, amount of active GLP-1 secreted (Table 3, Experiment 3): No | Amount of active GLP-1 secreted (relative value to control group as 100), average value (Table 3, Experiment 3): 98

CSCCC1NC(=O)C(CC(=O)O)NC1=O (stereo not drawn) [compound 172, Cyclo(Met-Asp)]
Significant difference (p < 0.05) vs control group, amount of active GLP-1 secreted (Table 4, Experiment 4): No | Amount of active GLP-1 secreted (relative value to control group as 100), average value (Table 4, Experiment 4): 141

O=C1C2CC(O)CN2C(=O)C2CCCN12 (stereo not drawn) [compound 74, Cyclo(Hyp-Pro)]
Significant difference (p < 0.05) vs control group, amount of active GLP-1 secreted (Table 2, Experiment 2): No | Amount of active GLP-1 secreted (relative value to control group as 100), average value (Table 2, Experiment 2): 115

NCCCC[C@@H]1NC(=O)[C@H](CO)NC1=O [compound 98, cyclo-seryl-lysine]
Significant difference (p < 0.05) vs control group, amount of active GLP-1 secreted (Table 3, Experiment 3): Yes | Amount of active GLP-1 secreted (relative value to control group as 100), average value (Table 3, Experiment 3): 71

C[C@H](O)[C@@H]1NC(=O)[C@H](CCC(N)=O)NC1=O [compound 167, Cyclo(Gln-Thr)]
Significant difference (p < 0.05) vs control group, amount of active GLP-1 secreted (Table 3, Experiment 3): No | Amount of active GLP-1 secreted (relative value to control group as 100), average value (Table 3, Experiment 3): 156

O=C(O)CCC1NC(=O)C2CCCN2C1=O (stereo not drawn) [compound 45, Cyclo(Glu-Pro)]
Significant difference (p < 0.05) vs control group, amount of active GLP-1 secreted (Table 1, Experiment 1): No | Amount of active GLP-1 secreted (relative value to control group as 100), average value (Table 1, Experiment 1): 145

C[C@@H]1NC(=O)[C@H](CC(N)=O)NC1=O [compound 124, Cyclo(Asn-Ala)]
Significant difference (p < 0.05) vs control group, amount of active GLP-1 secreted (Table 3, Experiment 3): No | Amount of active GLP-1 secreted (relative value to control group as 100), average value (Table 3, Experiment 3): 116

NC(=O)C[C@@H]1NC(=O)[C@H](CCC(=O)O)NC1=O [compound 129, Cyclo(Asn-Glu)]
Significant difference (p < 0.05) vs control group, amount of active GLP-1 secreted (Table 3, Experiment 3): No | Amount of active GLP-1 secreted (relative value to control group as 100), average value (Table 3, Experiment 3): 118

C[C@@H]1NC(=O)[C@H](CCCCN)NC1=O [compound 69, Cyclo(Ala-Lys)]
Significant difference (p < 0.05) vs control group, amount of active GLP-1 secreted (Table 2, Experiment 2): No | Amount of active GLP-1 secreted (relative value to control group as 100), average value (Table 2, Experiment 2): 161

NC(=O)CCC1NC(=O)C(CCC(N)=O)NC1=O (stereo not drawn) [compound 176, Cyclo(Gln-Gln)]
Significant difference (p < 0.05) vs control group, amount of active GLP-1 secreted (Table 4, Experiment 4): No | Amount of active GLP-1 secreted (relative value to control group as 100), average value (Table 4, Experiment 4): 111

N=C(N)NCCC[C@@H]1NC(=O)[C@H](CC(N)=O)NC1=O [compound 197, cyclo-asparaginyl-arginine]
Significant difference (p < 0.05) vs control group, amount of active GLP-1 secreted (Table 4, Experiment 4): Yes | Amount of active GLP-1 secreted (relative value to control group as 100), average value (Table 4, Experiment 4): 359

O=C1CNC(=O)CN1 [compound 2, Cyclo(Gly-Gly)]
Significant difference (p < 0.05) vs control group, amount of active GLP-1 secreted (Table 5, Experiment 5): No | Amount of active GLP-1 secreted (relative value to control group as 100), average value (Table 5, Experiment 5): 151

NCCCC[C@@H]1NC(=O)[C@H](Cc2c[nH]c3ccccc23)NC1=O [compound 59, cyclo-tryptophanyl-lysine]
Significant difference (p < 0.05) vs control group, amount of active GLP-1 secreted (Table 2, Experiment 2): Yes | Amount of active GLP-1 secreted (relative value to control group as 100), average value (Table 2, Experiment 2): 239

O=C1NC(CO)C(=O)N2CCCC12 (stereo not drawn) [compound 46, Cyclo(Ser-Pro)]
Significant difference (p < 0.05) vs control group, amount of active GLP-1 secreted (Table 2, Experiment 2): No | Amount of active GLP-1 secreted (relative value to control group as 100), average value (Table 2, Experiment 2): 139

NCCCC[C@@H]1NC(=O)[C@H](CCC(N)=O)NC1=O [compound 102, Cyclo(Gln-Lys)]
Significant difference (p < 0.05) vs control group, amount of active GLP-1 secreted (Table 3, Experiment 3): No | Amount of active GLP-1 secreted (relative value to control group as 100), average value (Table 3, Experiment 3): 112

NCCCCC1NC(=O)C(CCCCN)NC1=O (stereo not drawn) [compound 40, Cyclo(Lys-Lys)]
Significant difference (p < 0.05) vs control group, amount of active GLP-1 secreted (Table 1, Experiment 1): No | Amount of active GLP-1 secreted (relative value to control group as 100), average value (Table 1, Experiment 1): 164

O=C1CNC(=O)[C@H](CO)N1 [compound 154, Cyclo(Ser-Gly)]
Significant difference (p < 0.05) vs control group, amount of active GLP-1 secreted (Table 3, Experiment 3): No | Amount of active GLP-1 secreted (relative value to control group as 100), average value (Table 3, Experiment 3): 116

O=C1NCC(=O)N2CC(O)CC12 (stereo not drawn) [compound 73, Cyclo(Hyp-Gly)]
Significant difference (p < 0.05) vs control group, amount of active GLP-1 secreted (Table 2, Experiment 2): No | Amount of active GLP-1 secreted (relative value to control group as 100), average value (Table 2, Experiment 2): 121

N=C(N)NCCC[C@@H]1NC(=O)[C@H](Cc2c[nH]c3ccccc23)NC1=O [compound 189, cyclo-tryptophanyl-arginine]
Significant difference (p < 0.05) vs control group, amount of active GLP-1 secreted (Table 4, Experiment 4): Yes | Amount of active GLP-1 secreted (relative value to control group as 100), average value (Table 4, Experiment 4): 314

C[C@@H]1NC(=O)[C@H](C)NC1=O [compound 3, Cyclo(Ala-Ala)]
Significant difference (p < 0.05) vs control group, amount of active GLP-1 secreted (Table 1, Experiment 1): No | Amount of active GLP-1 secreted (relative value to control group as 100), average value (Table 1, Experiment 1): 95
